Laboratory results from ChEMBL document CHEMBL5338745, “Factor XIa Inhibitors in Anticoagulation Therapy: Recent Advances and Perspectives” (J Med Chem, 2023).

Legend:
Chymotrypsin = Chymotrypsin (Homo sapiens, UniProt Q99895+P17538+P40313+Q6GPI1); assay: Inhibition of human chymotrypsin; assay type: protein assay
Plasminogen = Plasminogen (Homo sapiens, UniProt P00747); assay: Inhibition of human plasmin
Coagulation factor VII = target: T1, Coagulation factor VII (Homo sapiens, UniProt P08709); assay: Inhibition of human FVIIa
T1 sequence (P08709 whole entry): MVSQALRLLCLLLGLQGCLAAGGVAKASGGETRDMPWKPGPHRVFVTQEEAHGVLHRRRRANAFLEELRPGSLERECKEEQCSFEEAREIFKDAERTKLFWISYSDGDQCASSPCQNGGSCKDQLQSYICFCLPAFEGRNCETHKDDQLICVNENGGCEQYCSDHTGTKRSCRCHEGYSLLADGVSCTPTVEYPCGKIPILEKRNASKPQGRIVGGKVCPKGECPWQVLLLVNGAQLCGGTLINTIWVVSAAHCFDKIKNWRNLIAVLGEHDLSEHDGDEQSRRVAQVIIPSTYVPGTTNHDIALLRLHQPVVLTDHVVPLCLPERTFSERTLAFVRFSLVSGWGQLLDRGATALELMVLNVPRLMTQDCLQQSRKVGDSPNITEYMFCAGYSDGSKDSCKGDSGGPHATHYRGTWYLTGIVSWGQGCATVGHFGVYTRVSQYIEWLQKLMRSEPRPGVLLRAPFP

Coagulation factor XI = Coagulation factor XI (Homo sapiens, UniProt P03951); assay: Inhibition of FXIa (unknown origin)
Sequence of Coagulation factor XI (P03951 19-387 limits assumed): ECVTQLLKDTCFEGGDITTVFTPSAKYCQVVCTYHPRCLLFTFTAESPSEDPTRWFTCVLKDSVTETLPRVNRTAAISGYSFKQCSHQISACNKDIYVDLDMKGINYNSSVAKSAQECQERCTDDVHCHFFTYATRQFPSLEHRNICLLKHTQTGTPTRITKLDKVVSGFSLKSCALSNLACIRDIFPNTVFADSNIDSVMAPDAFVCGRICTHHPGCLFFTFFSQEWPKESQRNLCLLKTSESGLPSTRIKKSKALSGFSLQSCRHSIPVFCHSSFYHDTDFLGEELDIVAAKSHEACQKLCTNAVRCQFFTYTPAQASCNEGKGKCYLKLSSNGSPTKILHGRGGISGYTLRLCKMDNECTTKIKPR
Sequence of Coagulation factor XI (P03951 388-625 limits assumed): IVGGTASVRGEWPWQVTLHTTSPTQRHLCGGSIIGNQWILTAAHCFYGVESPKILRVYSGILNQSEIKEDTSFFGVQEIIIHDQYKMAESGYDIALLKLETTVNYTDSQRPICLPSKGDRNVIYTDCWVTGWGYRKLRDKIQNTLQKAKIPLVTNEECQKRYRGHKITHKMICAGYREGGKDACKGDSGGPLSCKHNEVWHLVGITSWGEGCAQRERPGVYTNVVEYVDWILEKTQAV

Prothrombin = Prothrombin (Homo sapiens, UniProt P00734); assay: Inhibition of human thrombin
Coagulation factor X = Coagulation factor X (Homo sapiens, UniProt P00742); assay: Inhibition of human FXa
Sequence of Coagulation factor X (P00742 41-179 limits assumed): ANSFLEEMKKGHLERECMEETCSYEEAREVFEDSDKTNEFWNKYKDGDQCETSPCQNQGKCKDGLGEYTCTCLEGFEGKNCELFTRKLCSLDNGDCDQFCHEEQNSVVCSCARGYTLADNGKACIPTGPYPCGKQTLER
Sequence of Coagulation factor X (P00742 235-488 limits assumed): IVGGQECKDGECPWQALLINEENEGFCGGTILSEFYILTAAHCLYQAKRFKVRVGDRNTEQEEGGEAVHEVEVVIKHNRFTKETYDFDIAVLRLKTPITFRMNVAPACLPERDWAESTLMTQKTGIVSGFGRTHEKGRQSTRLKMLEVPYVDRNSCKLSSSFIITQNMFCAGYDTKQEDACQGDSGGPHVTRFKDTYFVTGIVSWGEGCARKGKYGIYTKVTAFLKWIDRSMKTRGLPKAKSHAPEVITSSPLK

Trypsin = Trypsin (Homo sapiens, UniProt P07477+P07478+P35030); assay: Inhibition of human trypsin; assay type: protein assay
Coagulation factor XII = target: T2, Coagulation factor XII (Homo sapiens, UniProt P00748); assay: Inhibition of human FXIIa
T2 sequence (P00748 whole entry): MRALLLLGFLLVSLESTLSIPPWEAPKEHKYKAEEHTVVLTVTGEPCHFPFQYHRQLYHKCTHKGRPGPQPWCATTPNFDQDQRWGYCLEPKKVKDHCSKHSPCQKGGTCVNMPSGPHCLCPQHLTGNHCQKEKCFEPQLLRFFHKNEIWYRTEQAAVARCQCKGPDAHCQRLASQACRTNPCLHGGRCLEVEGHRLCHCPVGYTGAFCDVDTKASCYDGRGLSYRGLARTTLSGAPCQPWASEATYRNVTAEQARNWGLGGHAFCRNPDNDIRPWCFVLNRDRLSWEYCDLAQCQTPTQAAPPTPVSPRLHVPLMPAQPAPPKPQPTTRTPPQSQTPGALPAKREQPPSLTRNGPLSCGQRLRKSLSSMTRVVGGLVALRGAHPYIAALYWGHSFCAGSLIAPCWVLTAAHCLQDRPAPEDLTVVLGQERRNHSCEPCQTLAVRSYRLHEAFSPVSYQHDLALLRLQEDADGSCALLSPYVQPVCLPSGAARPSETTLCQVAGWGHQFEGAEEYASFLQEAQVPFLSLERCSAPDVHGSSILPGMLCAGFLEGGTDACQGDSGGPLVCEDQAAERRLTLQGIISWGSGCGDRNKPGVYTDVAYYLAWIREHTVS

Sequence of Plasminogen (P00747 97-580 limits assumed): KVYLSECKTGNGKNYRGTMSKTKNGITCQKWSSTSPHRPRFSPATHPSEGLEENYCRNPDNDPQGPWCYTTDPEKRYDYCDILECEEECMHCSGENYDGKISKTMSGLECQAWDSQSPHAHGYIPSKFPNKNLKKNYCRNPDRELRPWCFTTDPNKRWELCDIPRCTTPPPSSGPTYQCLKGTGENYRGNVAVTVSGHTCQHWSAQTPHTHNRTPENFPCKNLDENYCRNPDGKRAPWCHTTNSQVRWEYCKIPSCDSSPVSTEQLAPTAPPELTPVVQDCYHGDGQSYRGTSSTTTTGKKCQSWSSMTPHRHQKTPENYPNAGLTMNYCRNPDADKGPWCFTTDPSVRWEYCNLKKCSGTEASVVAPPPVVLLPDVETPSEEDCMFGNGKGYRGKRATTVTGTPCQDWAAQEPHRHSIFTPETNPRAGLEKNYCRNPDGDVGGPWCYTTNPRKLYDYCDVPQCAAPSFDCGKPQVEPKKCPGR
Sequence of Plasminogen (P00747 581-810 limits assumed): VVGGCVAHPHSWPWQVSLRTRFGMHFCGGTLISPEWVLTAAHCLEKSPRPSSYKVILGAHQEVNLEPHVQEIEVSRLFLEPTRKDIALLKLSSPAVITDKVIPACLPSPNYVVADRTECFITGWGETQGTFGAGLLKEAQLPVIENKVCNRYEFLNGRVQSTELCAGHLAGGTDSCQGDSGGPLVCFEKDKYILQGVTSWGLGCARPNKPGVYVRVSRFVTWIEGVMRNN

IC50 (Chymotrypsin): > 40 µM
IC50 (Plasminogen): > 40 µM
IC50 (Coagulation factor VII): > 40 µM
IC50 (Coagulation factor XI): 0.28 µM
IC50 (Prothrombin): > 40 µM
IC50 (Coagulation factor X): > 40 µM
IC50 (Trypsin): > 40 µM
IC50 (Coagulation factor XII): > 40 µM
SMILES: O=C(O[C@H]1[C@H](OC(=O)c2cc(OS(=O)(=O)[O-])cc(OS(=O)(=O)[O-])c2)[C@H](OC(=O)c2cc(OS(=O)(=O)[O-])cc(OS(=O)(=O)[O-])c2)[C@@H](OC(=O)c2cc(OS(=O)(=O)[O-])cc(OS(=O)(=O)[O-])c2)[C@H](OC(=O)c2cc(OS(=O)(=O)[O-])cc(OS(=O)(=O)[O-])c2)[C@H]1OC(=O)c1cc(OS(=O)(=O)[O-])cc(OS(=O)(=O)[O-])c1)c1cc(OS(=O)(=O)[O-])cc(OS(=O)(=O)[O-])c1.[Na+].[Na+].[Na+].[Na+].[Na+].[Na+].[Na+].[Na+].[Na+].[Na+].[Na+].[Na+]
